# Values quoted from earlier work, collected in US20060030591A1 (Wyeth, priority 2004, published 2006).
# Assays:
# uterus = conditions: qualitative
# [1] = test system: tamoxifen-sensitive cells lines; conditions: other studies, qualitative
# [2] = test system: tamoxifen-resistent MCF-7 breast cancer xenografts; conditions: recent preclinical studies, qualitative
compound,measurement,setting,value
"Cc1c(-c2ccc(O)cc2)n(Cc2ccc(OCCN3CCCCC3)cc2)c2ccc(O)cc12.Cl [pipindoxifene, 2-(4-hydroxyphenyl)-3-methyl-1-[4-(2-piperidin-1-yl-ethoxy)-benzyl]-1H-indol-5-ol hydrochloride]",effect in the uterus,"uterus; Greenberger, et al., Clin. Cancer Res. (2001)",antiestrogenic in the uterus
same,uterotropic activity,uterus; tissue selective estrogenic effects,little or no uterotropic activity
same,effectiveness in tamoxifen-sensitive cells lines,[1],show effectiveness
same,growth of tamoxifen-resistent MCF-7 breast cancer xenografts,[2],inhibited the growth
